# Key:
# CFP-DH4 (A1cOX) [1] = experiment: HbA1c detection reaction completed with excess A1cOX (Example 4); assay type: biochemical; settings: 0.04% (w/v) compound, 5.3 mg/ml CFP-DH4 (excess), blood cells 10.4% HbA1c, pH 6.5, 37° C.; for ΔA9 min: change in A694-A751 9 minutes after mixing sample with first reagent; for ΔA10 min: change in A694-A751 10 minutes after mixing sample with first reagent, defined as ΔA100%
# Description: In this Example, the amount of change in absorbance when an excess amount of A1cOX is used and HbA1c detection reaction was completed is determined.
# A reagent for HbA1c measurement having the following composition was prepared, and the measurement of HbA1c was carried out using Bio Majesty JCA-BMI650 (manufactured by JEOL Ltd.).
# (§1) Blood cells (10.4% HbA1c (NGSP value))
# (§2) 30 mM MOPS-NaOH buffer solution, pH 6.5
# 0.2% (w/v) n-dodecyl-β-D-maltoside (manufactured by Dojindo Laboratories)
# (§3) 10 U/ml peroxidase PEO-301 (Toyobo Co., Ltd.)
# (§4) 0.023 mM 10-(carboxymethylaminocarbonyl)-3,7-bis(dimethylamino)phenothiazine sodium (DA-67, manufactured by Wako Pure Chemical Industries, Ltd.)
# 0.04% (w/v) of the compound of Comparative Example 2 (Wako Pure Chemical Industries, Ltd.), any one compound of the present invention (all from Tokyo Chemical Industry Co., Ltd. except for Acid Yellow 34 from MP Biomedicals, LLC), or compound-free (Comparative Example 1) ion-exchange water as shown in Table 1 (Second Reagent-A) 10 mM MOPS-NaOH buffer solution, pH 6.5 5.3 mg/ml CFP-DH4 (A cOX)
# 8 μl of the sample diluted 51-fold with ion-exchange water was added to 96 μl of the first reagent-A, and the mixture was incubated at 37° C. for 5 minutes. Then, 24 μl of the second reagent-A was added thereto, and the quantitative reaction of hydrogen peroxide resulting from the oxidation of the β-chain amino terminus of HbA1c was allowed to progress at 37° C. for 5 minutes. The absorbance (A694 and A751) of the reaction solution for light at wavelengths of 694 nm and 751 nm was measured over time for 10 minutes after the mixing of the diluted sample with the first reagent-A to determine the value subtracting of A751 from A694, i.e., the value A694/751. Subsequently, ΔA was calculated by subtracting, from A694/751, the value of (104/128) times A694/751 4.8 minutes after mixing the diluted sample with the first reagent-A. Incidentally, 4.8 minutes after the mixing of the diluted sample with the first reagent-A represents the time immediately before the addition of the second reagent-A. ΔA 9 minutes and 10 minutes after the mixing of the diluted sample with the first reagent (ΔA9min and ΔA10min) are shown in Table 1.
# In other words, it can be recognized that the quantitative reaction of HbA1c, i.e., the quantitative reaction of hydrogen peroxide resulting from the oxidation of HbA1c, was completed in 10 minutes after the mixing of the diluted sample with the first reagent-A. Accordingly, in Examples 4 and 5, ΔA10min in each Comparative Example or the present invention was defined as ΔA when 100% of the quantitative reaction of HbA1c progressed under each condition (ΔA100%).
# CFP-DH4 (A1cOX) [2] = experiment: Acceleration of HbA1c detection reaction with small amount of A1cOX (Example 5); assay type: biochemical; settings: 0.04% (w/v) compound, 1.1 mg/ml CFP-DH4; for effect of accelerating the HbA1c detection reaction: versus not added; for Degree of progression of reaction (%) after 7.5 minutes / Degree of progression of reaction (%) after 10 minutes: HbA1c detection reaction, ΔA/ΔA100%; for Degree of progression of reaction (%) after 7.5 minutes: 2.5 minutes after addition of second reagent, not added: 51; for Degree of progression of reaction (%) after 10 minutes: 5 minutes after addition of second reagent, not added: 73
# Description: Next, in this Example, the degree of acceleration of HbA1c detection reaction by the compound of the present invention was determined using a small amount of A1cOX.
# A reagent for HbA1c measurement having the following composition was prepared, and the measurement of HbA1c was carried out using Bio Majesty JCA-BM1650 (manufactured by JEOL Ltd.).
# as §1, §2
# 0.2% (w/v) n-dodecyl-3-D-maltoside (manufactured by Dojindo Laboratories)
# as §3, §4
# 0.04% (w/v) of the compound of Comparative Example 2, any one compound of the present invention, or compound-free (Comparative Example 1) ion-exchange water as shown in Table 2
# 10 mM MOPS-NaOH buffer solution, pH 6.5
# 1.1 mg/ml CFP-DH4 (A cOX)
# 8 μl of the sample diluted 51-fold with ion-exchange water was added to 96 μl of the first reagent, and the mixture was incubated at 37° C. for 5 minutes. Then, 24 μl of the second reagent-B was added thereto, and the quantitative reaction of hydrogen peroxide resulting from the oxidation of the β-chain amino terminus of HbA1c was allowed to progress at 37° C. for 5 minutes. The absorbance ([…] and A751) of the reaction solution for light at wavelengths of 694 nm and 751 nm was measured over time for 10 minutes after the mixing of the diluted sample with the first reagent to determine the value of subtraction of A751 from A694, i.e., the value A694/751. Subsequently, ΔA was calculated by subtracting, from A694/751, the value of (104/128) times A694/751 4.8 minutes after the mixing of the diluted sample with the first reagent. Incidentally, […] after the mixing of the diluted sample with the first reagent represents the time immediately before the addition of the second reagent-B.
# Next, ΔA calculated in this Example was divided by ΔA100% defined in Example 4 to calculate the degree of progression of HbA1c detection reaction. The degree of progression of HbA1c detection reaction 7.5 and 10 minutes after the mixing of the diluted sample with the first reagent (in other words, 2.5 and 5 minutes after the addition of the second reagent-B) is shown in Table 2.
Molecule,ΔA9 min (CFP-DH4 (A1cOX) [1]),ΔA10 min (CFP-DH4 (A1cOX) [1]),effect of accelerating the HbA1c detection reaction (CFP-DH4 (A1cOX) [2]),Degree of progression of reaction (%) after 7.5 minutes (CFP-DH4 (A1cOX) [2]),Degree of progression of reaction (%) after 10 minutes (CFP-DH4 (A1cOX) [2])
Cc1nn(-c2cc(S(=O)(=O)[O-])ccc2Cl)c(O)c1N=Nc1ccccc1.[Na+] [Acid Yellow 34],0.011,0.011,effect of accelerating the HbA1c detection reaction,75%,95%
O=S(=O)([O-])c1cccc(N=Nc2ccc(Nc3ccccc3)cc2)c1.[Na+] [Acid Yellow 36],0.011,0.011,effect of accelerating the HbA1c detection reaction,53%,81%
O=C([O-])c1cc(N=Nc2cccc([N+](=O)[O-])c2)ccc1O.[Na+] [Alizarin Yellow GG],0.016,0.016,effect of accelerating the HbA1c detection reaction,76%,91%
O=C(O)c1cc(N=Nc2ccc3cc(S(=O)(=O)O)ccc3c2)ccc1O.[Na] [Chrome Yellow],0.024,0.024,effect of accelerating the HbA1c detection reaction,53%,77%
COc1cc(N=Nc2cccc(S(=O)(=O)[O-])c2)ccc1NC(=O)Nc1ccc(N=Nc2ccc(O)c(C(=O)[O-])c2)cc1.[Na+].[Na+] [Direct Yellow 44],0.017,0.017,effect of accelerating the HbA1c detection reaction,77%,96%
O=C([O-])c1cc(N=Nc2ccc([N+](=O)[O-])cc2)ccc1O.[Na+] [Mordant Orange 1],0.016,0.016,effect of accelerating the HbA1c detection reaction,80%,94%
Acid Red 151,0.014,0.014,effect of accelerating the HbA1c detection reaction,55%,80%
Xylene Fast Yellow 2G,0.015,0.015,effect of accelerating the HbA1c detection reaction,58%,83%

# Source: patent publication US11384381B2, “Reaction accelerating agent” (Kikkoman Corporation, priority 2016, dated 2022)
